This is an account of results in patent publication US20240252476A1, “LPA1 ANTAGONISTS FOR TREATING INTERSTITIAL LUNG DISEASE” (Bristol-Myers Squibb Company, priority 2022, published 2024).

Data set [1] can be described thus: Phase 1 multiple ascending dose study (Part B), blood pressure in healthy participants. The format is in vivo, human. The settings on record: MAD, 14-day treatment period. The protocol:
(§1) The study was performed in 3 parts in 112 healthy male and female participants, including 24 Japanese participants. Female participants were to be not of childbearing potential. The present study was designed to evaluate the safety and tolerability, PK, and exploratory PD of an oral suspension of Compound A. Parts A and B (Cohort B1 only) enrolled healthy participants and was conducted at a site in The Netherlands and Part B (Cohort B2 to B5) enrolled healthy non-Japanese participants and was conducted at a site in the United Kingdom (UK). Part C enrolled healthy Japanese participants and was conducted at the same site in the UK.
Part B was a MAD study in a planned number of 6 sequential dose escalation cohorts (10 mg QD, 30 mg QD, 30 mg BID, 60 mg BID, 125 mg BID, and ≤250 mg BID) of 8 healthy participants (6 active+2 placebo) each, under fasted conditions. However, Cohort B6 (≤250 mg BID) was cancelled because sufficient safety and PK data had been obtained at doses up to 125 mg BID. […]
Physical examinations, vital sign measurements (including orthostasis testing in Cohort A6, Cohort B3 to B5, and C1 to C3 at selected time points), 12-lead electrocardiogram (ECG), and clinical laboratory evaluations were performed at selected times throughout the study. […] Participants were closely monitored for adverse events (AEs). […]

Data set [2] deals with participants with PPF. In words: Phase 2 study, PPF cohort: efficacy (ppFVC, FVC). The format is in vivo, human. To be noted: for Relative reduction: 60 mg v placebo. The procedure:
(§2) A total of 123 participants with PPF were randomized. Participants (age ≥21 years) were randomized (1:1:1) to receive 30 mg or 60 mg Compound A or PBO twice daily for 26 weeks. […] Immunosuppressive medications (mycophenolate mofetil, mycophenolic acid, azathioprine and/or tacrolimus) were permitted only if dosing is stable for ≥6 months prior to screening. If receiving antifibrotic agents pirfenidone or nintedanib, patients had to receive a stable dosage for ≥3 months prior to screening and during the screening period; if not receiving pirfenidone or nintedanib, patients had to be naive to both drugs or not have received either 4 weeks prior to Day 1. A total of 47 (38.2%) subjects were receiving antifibrotic treatment (with or without immunosuppression therapy). Of those subjects, 34 were being treated with nintedanib and 13 with pirfenidone. Participants were stratified by usual interstitial pneumonia (UIP) pattern (presence versus absence) and background therapy (antifibrotics +/−ILD-targeted immunosuppression versus ILD-targeted immunosuppression alone versus none).UIP pattern was present in 52% of subjects and unclassifiable ILD was he most common disease categorization.
The study was not powered to detect statistical significance (no formal testing). No target effect size was defined in the study design. There were two estimand approaches for analysis:
Treatment Policy: Effect of treatment with dose reduction as part of treatment regimen.
While-On Treatment: Effect of treatment without dose reduction.
The main efficacy endpoint, rate of FVC decline (in […]) from baseline to wk-26 in the PPF cohort, was estimated using a linear mixed-effects model utilizing all FVC timepoints. It was analyzed under a primary estimand (utilizing all data, treatment policy strategy), and under supplementary estimand (utilizing all data up to the point of dose reduction, while-on-treatment strategy). Analysis was performed in the overall population as well as in sub-groups by 1) background anti-fibrotic treatment or not 2) UIP radiographic pattern (presence or not). The mean baseline ppFVC was 66.700 for the PPF cohort.

A short description of data set [3]: Phase 2 study, PPF cohort: safety and blood pressure reduction criteria. The format is in vivo, human. The protocol: as §2
Patient is experiencing any of the following, confirmed by retest within 15 minutes: • Seated systolic blood pressure <85 mmHg • Seated diastolic blood pressure <55 mmHg • Orthostatic hypotension
Patient is experiencing symptoms that, in the investigator's opinion, could be associated with a reduction in blood pressure and is also experiencing at least one of the following, confirmed by retest within 15 minutes: • Seated systolic blood pressure <100 mmHg or seated diastolic blood pressure <60 mmHg • Decrease of seated systolic blood pressure of ≥20 mmHg from the previous visit or decrease of seated diastolic blood pressure of ≥10 mmHg from the previous visit • Orthostatic hypotension • Orthostatic tachycardia

The subject of data set [4] is participants with IPF. The data set can be described thus: Phase 2 study, IPF cohort: efficacy (ppFVC, FVC). In kind it is in vivo, human. To be noted: for Rate of change in ppFVC over 26 weeks: 60-mg arm. The protocol:
A total of 278 participants with IPF were randomized and 276 participants were treated as of theinal analyses data cut-off (4 Aug. 2022). Male and female participants ≥40 years of age with IPF and percent predicted forced vital capacity (ppFVC) ≥40% and percent predicted DLCO (ppDLCO) ≥25%; diagnosed within 7 years of screening; having a centrally-read chest HRCT obtained at screening that was consistent with UIP or probable UIP, or having a lung biopsy consistent with UIP were eligible to enter the study. The mean baseline ppFVC for all subjects was 76.5%. In the primary IPF cohort, participants were randomized (1:1:1) to receive 30 mg or 60 mg Compound A or placebo (PBO) twice daily for 26 weeks. Participants were stratified by standard of care (SoC) IPF therapy (pirfenidone versus nintedanib versus none) and region (Japan versus Rest of World) at randomization.
The primary objective of the study was to determine the rate of change in ppFVC from baseline to Week 26. The primary objective was evaluated with a two estimand framework to handle the intercurrent event of dose reduction to 10 mg BID or matching PBO when pre-specified low BP criteria is met. The primary estimand is adopted to estimate treatment effect when dose reduction is implemented. The supplementary estimand is adopted to estimate the effect of treatment without dose reduction.
Analysis Strategy: The primary estimand was to evaluate the efficacy of Compound A at 30 mg or 60 mg twice daily, compared to PBO in IPF participants who met the enrollment criteria, with or without use of SoC. The rate of decline in ppFVC (%) from baseline to Week 26 was compared using the difference between each dose and PBO as a population level summary regardless of dose reduction or treatment discontinuation for any reason (treatment policy strategy).
Analysis Strategy: The supplementary estimand for the primary objective is to evaluate the efficacy of Compound A at 30 mg or 60 mg twice daily without dose reduction, compared to the PBO in IPF subjects who met the enrollment criteria, with or without use of SoC. The rate of decline in ppFVC (%) from baseline to Week 26 has been compared using the difference between each dose and PBO as a population level summary regardless of treatment discontinuation for any reason (treatment policy strategy). In the event of dose reduction, data collected after dose reduction will not be considered relevant to the treatment effect of interest and therefore, will be treated as missing (while-on-treatment strategy).

Data set [5] can be described thus: Phase 1 multiple ascending dose study (Part C), blood pressure in healthy Japanese participants. In kind it is in vivo, human. The protocol: as §1
Part C was a MAD study in 3 sequential dose escalation cohorts (30 mg BID, 60 mg BID, and 90 mg BID) of 8 healthy Japanese participants (6 active+2 placebo) each. Eligible participants in Cohorts C1 to C3 received study drug (Compound A or placebo) administered orally for 14 days.
Physical examinations, vital sign measurements (including orthostasis testing in Cohort A6, Cohort B3 to B5, and C1 to C3 at selected time points), 12-lead electrocardiogram (ECG), and clinical laboratory evaluations were performed at selected times throughout the study. In addition, Holter monitoring was performed for the first 24 hours post dose on Day 1 in Part A (not in FE/pH cohort), and also for the first 24 hours post dose on Day 1 and Day 14 in Parts B and C. Participants were closely monitored for adverse events (AEs). Blood samples were collected for up to 14 days (follow-up visit) after (last) study drug administration for PK analysis. In addition, blood and urine were collected for exploratory biomarker assessments and for biobanking of samples for potential analyses. Urine was collected for potential PK analysis for up to 96 hours after a single dose of Compound A or placebo was administered in the SAD part, and for up to 24 hours after the first (morning) dose of study drug on Day 1 and for up to 24 hours after the last (morning) dose of study drug on Day 14 in the MAD parts.

Data set [6] in a line: Effect of single and multiple ascending doses of Compound B on blood pressure. The format is in vivo. An excerpt:
and is described in U.S. Patent Application Publication No. 2010/0311799. Single ascending dose of Compound B caused a drop in blood pressure starting ˜1.25 hr post dose (FIG. 5).

The test system of data set [7] is patients with PPF. The settings on record: 52-week study period; cited from earlier work.
In data set [8] the test system is patients with IPF. To be noted: cited from earlier work.

As to `CCCN(C)C(=O)OCc1c(-c2ccc(O[C@H]3CCC[C@H](C(=O)O)C3)c(C)n2)nnn1C` [Compound A, (1S,3S)-3-((2-methyl-6-(1-methyl-5-(((methyl(propyl)carbamoyl)-oxy)methyl)-1H-1,2,3-triazol-4-yl)pyridin-3-yl)oxy)cyclohexane-1-carboxylic acid], the “Magnitude of BP reductions with repeated dosing” value in data set [1] is on record as “no clear changes in the magnitude of BP reductions with repeated dosing”. Further, the Relative reduction in data set [2] (Anti-fibrotic subgroup) was 75%; in data set [2] (No antifibrotic subgroup), 63%; in data set [2] (Non UIP subgroup) it was 84%; in data set [2] (UIP subgroup), 54%; in data set [2] (overall) it was 69%. In addition, the “Rate of change in ppFVC over 26 weeks” value is reported as −2.7% in data set [2] (30-mg arm, treatment policy strategy); −2.5% in data set [2] (30-mg arm, while-on-treatment strategy); −1.1% in data set [2] (60-mg arm, treatment policy strategy); −1.3% in data set [2] (60-mg arm, while-on-treatment strategy); −1.2% in data set [4] (treatment policy strategy); −1.1% in data set [4] (while-on-treatment strategy). The “Treatment difference 60 mg v placebo in rate of decline in ppFVC” value in data set [2] (Non UIP subgroup, baseline to Week 26) was 3.80. Besides, the entries for the “Treatment difference in rate of change in ppFVC, 60-mg vs placebo” value in data set [2] (treatment policy strategy) and in data set [2] (while-on-treatment strategy) were 3.2% and 2.9%, respectively. The “Low BP thresholds ("events")” value in data set [3] (30 mg) is reported as 30%. Besides, the “Deaths due to TEAEs” value in data set [3] (30 mg (n = 40)) and in data set [3] (60 mg (n = 42)) was 0 no throughout. The same molecule had a Dizziness in data set [3] (30 mg (n = 40)) of 0 no. In data set [3] (30 mg (n = 40)), this molecule displayed a Hypertension of 0 no. Further, the “Discontinuations due to TEAEs” value in data set [3] (60 mg (n = 42)) was found to be 0 no. In data set [3] (60 mg (n = 42)), the Dyspnea is 0 no. Moreover, the Rash in data set [3] (60 mg (n = 42)) came to 0 no. This molecule also displayed a Vomiting in data set [3] (60 mg (n = 42)) of 0 no. In data set [4] (60 mg BID, Week 26, overall population), the “Treatment response vs PBO (rate of decline of ppFVC and FVC)” value is recorded as “favorable treatment responses”. For the same molecule, the “Relative treatment benefit vs PBO (ppFVC)” value in data set [4] (60 mg BID, primary estimand, not on background SoC) was determined as 113%; in data set [4] (60 mg BID, primary estimand, on background SoC), 39%; in data set [4] (60 mg BID, supplementary estimand, not on background SoC) it was 123%; in data set [4] (60 mg BID, supplementary estimand, on background SoC), 44%. Besides, the “Treatment difference in rate of change in ppFVC, 60-mg arm vs placebo” value in data set [4] (treatment policy strategy) is given as 1.4%; in data set [4] (while-on-treatment strategy), 1.8%. The “DBP, Baseline” value turned out to be 8.8 ± 5.12 mmHg in data set [5] (Japanese MAD 30 mg BID (C1)), 8.2 ± 10.40 mmHg in data set [5] (Japanese MAD 60 mg BID (C2)) and 8.0 ± 8.22 mmHg in data set [5] (Japanese MAD 90 mg BID). The “DBP, Reduction” value in data set [5] (Japanese MAD 30 mg BID (C1)) worked out at 72.2 ± 3.87 mmHg; in data set [5] (Japanese MAD 60 mg BID (C2)), 73.8 ± 6.18 mmHg; in data set [5] (Japanese MAD 90 mg BID), 70.7 ± 7.58 mmHg. The “Dose dependence of BP reduction” value in data set [5] (Japanese MAD cohorts) is recorded as “no clear Compound A dose-dependent BP reduction trend”.
For the molecule `Cc1noc(-c2ccc(-c3ccc(C4(C(=O)O)CC4)cc3)cc2)c1NC(=O)O[C@H](C)c1ccccc1` [Compound B, sodium (R)-1-(4′-(3-methyl-4-(((1-phenylethoxy)carbonyl)amino)isoxazol-5-yl)-[1,1′-biphenyl]-4-yl)cyclopropane-1-carboxylate], the “Normalization of blood pressure” value in data set [6] (multiple days of dosing (FIG. 6)) is approximately 3 days. The “Start of drop in blood pressure post dose” value in data set [6] (single ascending dose (FIG. 5)) was approximately 1.25 h.
Take `COC(=O)c1ccc2c(c1)NC(=O)/C2=C(\Nc1ccc(N(C)C(=O)CN2CCN(C)CC2)cc1)c1ccccc1` [nintedanib]: the “Progression of lung fibrosis vs placebo (annual rate of decline in FVC)” value in data set [7] is “slower progression of lung fibrosis than those who received placebo”. The “Decline in lung function” value in data set [8] is given as “significantly reduce the decline in lung function”.
For the molecule `Cc1ccc(=O)n(-c2ccccc2)c1` [pirfenidone], the “Decline in lung function” value in data set [8] is reported as “significantly reduce the decline in lung function”.
